TGI data for eight molecules are collected here from PubChem BioAssay (NCI).

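Tested at 5 concentrations; 48 h exposure; 96-well plates; endpoints linearly interpolated, else capped at highest concentration. At the TGI there is no net growth.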

Test systems include A549 NSCLC; COLO 205 colon; DMS 114 small cell lung; EKVX NSCLC; RPMI-8226 leukemia; RXF 393 renal; SF-268 CNS; DLD-1 colon; HOP-18 NSCLC; OVCAR-5 ovarian; SR leukemia; MDA-N.
Holding throughout (test): NCI anticancer screen, dose series, 48 h

As for `COC(=O)C1=C(C)N2CCCOC2(C)C(C(=O)OC)C1c1cccc(Cl)c1` (configuration not stated), the TGI with A549 NSCLC was over 100 µM; in the test on COLO 205 colon, 37.9 µM; in the test with DMS 114 small cell lung, 60.5 µM; with EKVX NSCLC, 89.3 µM; with RPMI-8226 leukemia, 52.1 µM; in the test on RXF 393 renal it was over 100 µM. Moreover, the TGI with SF-268 CNS was over 100 µM.

Turning to `CC(C)(C)C#C[P+](c1ccccc1)(c1ccccc1)c1ccccc1`, the TGI with A549 NSCLC was 1.91 µM; in the test on COLO 205 colon it was 0.397 µM; with DLD-1 colon, 2.5 µM; with EKVX NSCLC it was 4.1 µM; in the test with HOP-18 NSCLC it was 6.34 µM; in the test with OVCAR-5 ovarian, 2.4 µM. Further, the TGI with RPMI-8226 leukemia stood at 0.212 µM; with RXF 393 renal it was 1.37 µM; with SF-268 CNS, 1.48 µM; with SR leukemia, 0.611 µM.

In the case of `Cc1cn(C2CC(O)C(CO)C2C)c(=O)[nH]c1=O` (configuration not stated), the TGI with A549 NSCLC, in the test with COLO 205 colon, in the test on DLD-1 colon, in the test on DMS 114 small cell lung, with EKVX NSCLC and with HOP-18 NSCLC was over 100 µM throughout. Further, the TGI with OVCAR-5 ovarian, with RXF 393 renal and with SF-268 CNS was over 100 µM in each case.

As for `C=Nc1ccc([N+](=O)[O-])cc1`, the TGI was over 100 µM in the test on A549 NSCLC; over 100 µM in the test on COLO 205 colon; over 100 µM in the test with DLD-1 colon; over 100 µM in the test with DMS 114 small cell lung; over 100 µM with EKVX NSCLC; over 92.9 µM in the test on HOP-18 NSCLC. The TGI in the test with OVCAR-5 ovarian was over 100 µM; with RPMI-8226 leukemia, over 31.6 µM; in the test with SF-268 CNS, over 100 µM; in the test with SR leukemia it was over 80.1 µM.

As to `NNC(=O)CC(=O)Nc1ccc(Cl)cc1`, the TGI in the test with A549 NSCLC, in the test with COLO 205 colon, with EKVX NSCLC, in the test with MDA-N, in the test with OVCAR-5 ovarian and in the test on RPMI-8226 leukemia was over 100 µM throughout. Moreover, the TGI with RXF 393 renal, with SF-268 CNS and in the test on SR leukemia was over 100 µM throughout.

For `CCCC1NC(C#N)(C#N)C(CCC)NC1(C#N)C#N` (configuration not stated), the TGI was over 100 µM in the test with A549 NSCLC; 12.7 µM in the test on COLO 205 colon; over 100 µM in the test with EKVX NSCLC; over 55 µM in the test with MDA-N; over 90.1 µM in the test on OVCAR-5 ovarian; 0.943 µM in the test on RPMI-8226 leukemia. In addition, the TGI was over 66.9 µM in the test on RXF 393 renal, over 48.7 µM in the test on SF-268 CNS and 1.49 µM in the test on SR leukemia.

Regarding `CC(C)CC(=O)NC(Nc1ccc(S(=O)(=O)Nc2ncccn2)cc1)(C(F)(F)F)C(F)(F)F`, the TGI in the test with A549 NSCLC, in the test with COLO 205 colon, in the test with EKVX NSCLC, with MDA-N, in the test on OVCAR-5 ovarian and in the test on RPMI-8226 leukemia was over 100 µM each time. Moreover, the TGI in the test with RXF 393 renal, in the test with SF-268 CNS and with SR leukemia was over 100 µM throughout.

Consider `CC1(C)CCC[C@]2(C)[C@@H]1CC[C@@]13O[C@@H]1C1=C(CO)C(=O)O[C@]14O[C@@H]4[C@@H]23`, for which the TGI in the test with A549 NSCLC was 23.5 µM; in the test with COLO 205 colon, 40.3 µM; with EKVX NSCLC, 24.9 µM; with MDA-N, 20.1 µM; with OVCAR-5 ovarian, 31.8 µM; in the test on RPMI-8226 leukemia it was over 100 µM. The TGI is 25.2 µM with RXF 393 renal, 29.6 µM in the test with SF-268 CNS and over 100 µM in the test with SR leukemia.
